Assay results taken from PubChem BioAssay AID328 (DTP/NCI, 2004).
Toxic doses and inconclusive results are not listed. Starred links: 1 amine or outer side, 2 acyl side, 3 side chain; linkers in the order of their positions; H or OH if unused. Positions of bridges follow the written chain, without caps; N, C: chain ends. Non-standard residues stand in square brackets, D forms with d. Residues, ends and D or L forms follow the SMILES beside them. ξ: configuration not given here. *: point of attachment. ξOrn(4,5-diOH) = O=C(C(CC(O)C(O)N[*:3])N[*:1])[*:2]; ξhTyr(βξ-OH,γξ-OH) = NC(C(=O)O)C(O)C(O)c1ccc(O)cc1; ξPro(3ξ-OH,4ξ-Me) = CC1CNC(C(=O)O)C1O; X4 = CCCCC/C=C/C/C=C\CCCCCCCC(=O)*; Hyp = O=C(O)[CH]1C[CH](O)CN1

System: BDF1 mice, P388 leukemia ip, median survival T/C
Assay: NCI In Vivo Anticancer Drug Screen. Data for tumor model P388 Leukemia (intraperitoneal) in B6D2F1 (BDF1) mice
Details: endpoint: median survival time, higher = longer survival
How it was run: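 In tumour-bearing mice, survival after compound treatment is set against the vehicle group and given as a quotient.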

[1] = dose: 100.0 mg/kg/injection, schedule: Q04DX003 (ip), vehicle: saline with Tween-80
[2] = dose: 200.0 mg/kg/injection, schedule: Q04DX003 (ip), vehicle: saline with Tween-80
[3] = dose: 400.0 mg/kg/injection, schedule: Q04DX003 (ip), vehicle: saline with Tween-80

For CCCCC/C=C/C/C=C\CCCCCCCC(=O)NC1CC(O)C(O)NC(=O)C2C(O)C(C)CN2C(=O)C(C(C)O)NC(=O)C(C(O)C(O)c2ccc(O)cc2)NC(=O)C2CC(O)CN2C(=O)C(C(C)O)NC1=O (stereo not drawn) (X4-[ξOrn(4,5-diOH)]T[Hyp][ξhTyr(βξ-OH,γξ-OH)]T[ξPro(3ξ-OH,4ξ-Me)]; lactam 1-C; configuration not given here), the T/C (dose: 0.5 mg/kg/injection, schedule: Q01DX009 (ip), vehicle: lactate) was 100 % of control, the T/C (dose: 1.0 mg/kg/injection, schedule: Q01DX009 (ip), vehicle: lactate) was 102 % of control and the T/C (dose: 2.0 mg/kg/injection, schedule: Q01DX009 (ip), vehicle: lactate) was 102 % of control. For the same compound, the T/C (dose: 4.0 mg/kg/injection, schedule: Q01DX009 (ip), vehicle: lactate) was 100 % of control.
For COc1cc2c(c(OC)c1OC)-c1ccc(N)c(=O)cc1[C@@H](NC(C)=O)CC2, the T/C (dose: 0.5 mg/kg/injection, schedule: Q01DX010 (ip), vehicle: saline) was 113 % of control and the T/C (dose: 2.0 mg/kg/injection, schedule: Q01DX010 (ip), vehicle: saline) was 118 % of control.
O=C(COc1cc(Cl)c(Cl)cc1Cl)OCCOc1cc(Cl)c(Cl)cc1Cl was tested, and the T/C (dose: 3.13 mg/kg/injection, schedule: Q01DX009 (ip), vehicle: saline with Tween-80) was 91 % of control, the T/C (dose: 3.13 mg/kg/injection, schedule: Q04DX003 (ip), vehicle: saline with Tween-80) was 100 % of control and the T/C (dose: 6.25 mg/kg/injection, schedule: Q04DX003 (ip), vehicle: saline with Tween-80) was 95 % of control. The T/C (dose: 12.5 mg/kg/injection, schedule: Q04DX003 (ip), vehicle: saline with Tween-80) was 100 % of control.
With CC(=O)[O][Pb]([CH2]CC(C)C)([CH2]CC(C)C)[CH2]CC(C)C the T/C (dose: 0.19 mg/kg/injection, schedule: Q01DX009 (ip), vehicle: saline with Tween-80) was 123 % of control, the T/C (dose: 0.38 mg/kg/injection, schedule: Q01DX009 (ip), vehicle: Klucel (hydroxypropylcellulose) (HPC)) was 94 % of control and the T/C (dose: 0.38 mg/kg/injection, schedule: Q01DX009 (ip), vehicle: saline with Tween-80) was 111 % of control. The T/C (dose: 0.75 mg/kg/injection, schedule: Q01DX009 (ip), vehicle: Klucel (hydroxypropylcellulose) (HPC)) was 105 % of control and the T/C (dose: 0.75 mg/kg/injection, schedule: Q01DX009 (ip), vehicle: saline with Tween-80) was 106 % of control.
With CCSC(C)C the T/C (dose: 100.0 mg/kg/injection, schedule: Q04DX003 (ip), vehicle: saline) was 100 % of control, the T/C (dose: 200.0 mg/kg/injection, schedule: Q04DX003 (ip), vehicle: saline) was 104 % of control and the T/C (dose: 400.0 mg/kg/injection, schedule: Q04DX003 (ip), vehicle: saline) was 95 % of control.
For C1OCN2CSCC12 (stereo unspecified), the T/C (dose: 100.0 mg/kg/injection, schedule: Q04DX002 (ip), vehicle: suspension in saline) was 110 % of control and the T/C (dose: 600.0 mg/kg/injection, schedule: Q04DX002 (ip), vehicle: suspension in saline) was 117 % of control.
CC(=O)Oc1ccc(C2C3=C(COC3=O)CC3=C2C(=O)OC3)cc1 was tested, and the T/C (dose: 100.0 mg/kg/injection, schedule: Q01DX007 (ip), vehicle: saline with Tween-80) was 95 % of control, the T/C [1] was 100 % of control and the T/C (dose: 200.0 mg/kg/injection, schedule: Q01DX007 (ip), vehicle: saline with Tween-80) was 90 % of control. For the same compound, the T/C [2] was 110 % of control, the T/C (dose: 400.0 mg/kg/injection, schedule: Q01DX007 (ip), vehicle: saline with Tween-80) was 100 % of control and the T/C [3] was 100 % of control.
For CCOc1cc(/C=N\Nc2nnc(C)n2N)c(C)cc1N(CCCl)CCCl, the T/C (dose: 5.5 mg/kg/injection, schedule: Q01DX009 (ip), vehicle: saline with Tween-80) was 200 % of control, the T/C (dose: 8.3 mg/kg/injection, schedule: Q01DX009 (ip), vehicle: saline with Tween-80) was 209 % of control and the T/C (dose: 12.5 mg/kg/injection, schedule: Q01DX009 (ip), vehicle: saline with Tween-80) was 272 % of control. For the same compound, the T/C (dose: 18.7 mg/kg/injection, schedule: Q01DX009 (ip), vehicle: saline with Tween-80) was 195 % of control, the T/C (dose: 40.0 mg/kg/injection, schedule: Q04DX003 (ip), vehicle: saline) was 204 % of control and the T/C (dose: 50.0 mg/kg/injection, schedule: Q04DX003 (ip), vehicle: saline sonified) was 168 % of control. For the same compound, the T/C (dose: 100.0 mg/kg/injection, schedule: Q04DX003 (ip), vehicle: saline sonified) was 86 % of control.
For CN1CCCc2cccc(NC(=O)C3CCCNC3=O)c21 (stereo unspecified), the T/C [1] was 101 % of control, the T/C [2] was 100 % of control and the T/C [3] was 116 % of control.
